Here are results for twelve molecules from US20230265116A1, “DEGRADATION OF (EGFR) BY CONJUGATION OF EGFR INHIBITORS WITH E3 LIGASE LIGAND AND METHODS OF USE” (BEIGENE, LTD., priority 2020, published 2023).

In experiment [1] the target is T1, EGFR L858R/T790M/C797S (BaF3-LTC cells) (Homo sapiens, UniProt P00533, C797S/L858R/T790M).
T1 construct: expressed in transfected cells; host or cells: BaF3
As to the kind of experiment: EGFR degradation HTRF assay, BaF3-LTC cells. Type of experiment: cell-based. The method, boiled down:
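Cells treated 16 h at 37 °C, 5% CO2 in medium with 0.2% DMSO; top final concentration 10 uM, 5-fold dilution, 8 doses. Lysates read by HTRF (665/620 nm); degradation % versus DMSO high control, DC50 from four-parameter fit, Dmax as maximal degradation.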

Experiment [2] relates to EGFR Del19/T790M/C797S (H1975-clone #28). The experiment can be described thus: EGFR degradation HTRF assay, H1975-clone #28 DTC cells. It is filed as cell-based. The method, boiled down:
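Lentiviral Del19/T790M/C797S (clone #28) or Del19/C797S (clone #23) EGFR expressed in H1975 with endogenous EGFR knocked out. Cells treated 16 h, 37 °C, 8 doses, 5-fold from 10 uM top, 0.2% DMSO; EGFR read by HTRF after lysis. Degradation % vs DMSO control; DC50, Dmax from four-parameter fit.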
(In TR-FRET formats the signal depends on donor and acceptor labels being close together.)

The mark [3] stands for this setting: BaF3-LTC cells; EGFR degradation, IC50 (DC50) from curve fit; read-out: DC50(nM) BaF3-LTC.
The mark [4] stands for this setting: BaF3-LTC cells; maximum percentage of inhibition (degradation); read-out: Dmax (%) BaF3-LTC.
The mark [5] stands for this setting: H1975 # 28 DTC cells; EGFR degradation, IC50 (DC50) from curve fit; read-out: DC50(nM) H1975 # 28 DTC.
Where [6] appears, read: H1975 # 28 DTC cells; maximum percentage of inhibition (degradation).
[7] abbreviates: BaF3-LTC cells; maximum percentage of inhibition (degradation).
Setting [8] is: read-out: DC50(nM) BaF3-LTC; BaF3-LTC cells; EGFR degradation, IC50 (DC50) from curve fit.
Setting [9] is: read-out: DC50(nM) H1975 # 28 DTC; H1975 # 28 DTC cells; EGFR degradation, IC50 (DC50) from curve fit.
[10] abbreviates: read-out: Dmax (%) BaF3-LTC, BaF3-LTC cells; maximum percentage of inhibition (degradation).

Like-named read-outs stand apart in the source and are kept apart here.

T1 sequence (P00533 25-1210 T790M/C797S/L858R): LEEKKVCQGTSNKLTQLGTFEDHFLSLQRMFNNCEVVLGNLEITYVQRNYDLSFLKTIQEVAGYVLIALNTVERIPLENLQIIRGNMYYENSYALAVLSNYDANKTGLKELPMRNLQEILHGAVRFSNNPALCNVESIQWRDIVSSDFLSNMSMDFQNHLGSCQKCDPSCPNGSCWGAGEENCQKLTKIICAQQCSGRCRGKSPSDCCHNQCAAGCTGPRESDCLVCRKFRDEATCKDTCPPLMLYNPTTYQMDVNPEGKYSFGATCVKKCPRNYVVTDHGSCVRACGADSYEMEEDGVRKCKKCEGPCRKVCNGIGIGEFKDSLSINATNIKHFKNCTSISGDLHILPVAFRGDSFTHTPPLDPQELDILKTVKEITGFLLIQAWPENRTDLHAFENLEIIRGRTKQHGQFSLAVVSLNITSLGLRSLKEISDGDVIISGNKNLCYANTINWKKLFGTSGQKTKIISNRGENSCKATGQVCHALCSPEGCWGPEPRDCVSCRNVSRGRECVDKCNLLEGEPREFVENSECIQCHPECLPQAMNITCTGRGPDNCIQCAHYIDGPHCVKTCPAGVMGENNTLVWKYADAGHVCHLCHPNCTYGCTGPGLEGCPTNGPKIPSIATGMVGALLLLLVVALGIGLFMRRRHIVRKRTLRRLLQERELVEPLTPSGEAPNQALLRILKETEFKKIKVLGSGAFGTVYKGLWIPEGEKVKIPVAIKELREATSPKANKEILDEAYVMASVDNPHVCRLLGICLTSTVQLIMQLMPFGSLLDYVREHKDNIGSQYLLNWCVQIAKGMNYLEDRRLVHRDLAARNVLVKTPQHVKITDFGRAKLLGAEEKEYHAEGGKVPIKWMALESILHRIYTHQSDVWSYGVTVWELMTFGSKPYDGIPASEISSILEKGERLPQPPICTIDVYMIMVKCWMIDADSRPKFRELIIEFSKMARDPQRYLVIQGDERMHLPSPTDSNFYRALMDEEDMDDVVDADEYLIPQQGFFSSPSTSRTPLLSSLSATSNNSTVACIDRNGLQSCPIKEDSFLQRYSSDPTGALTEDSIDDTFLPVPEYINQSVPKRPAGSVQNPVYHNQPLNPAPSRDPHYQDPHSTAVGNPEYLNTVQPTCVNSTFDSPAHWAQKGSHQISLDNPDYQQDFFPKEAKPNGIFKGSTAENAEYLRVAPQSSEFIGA

For orientation: DC50 means the concentration giving 50% degradation. As a reminder, the Dmax is the largest share of the target that was removed. Consider `CCc1cc(Nc2ncc(Br)c(Nc3ccc4nc(C)ccc4c3P(C)(C)=O)n2)c(OC2CC2)cc1N1CCC(N2CCN(CC3CN(c4cccc5c4oc(=O)n5C4CCC(=O)NC4=O)C3)CC2)CC1` (stereo not drawn) [Example 600, 3-(7-(3-((4-(1-(4-((5-bromo-4-((5-(dimethylphosphoryl)-2-methylquinolin-6-yl)amino)pyrimidin-2-yl)amino)-5-cyclopropoxy-2-ethylphenyl)piperidin-4-yl)piperazin-1-yl)methyl)azetidin-1-yl)-2-oxobenzo[d]oxazol-3(2H)-yl)piperidine-2,6-dione], for which the DC50 in experiment [1] (setting [3]) was found to be 4.11 nM; in experiment [2] (setting [5]), 1.18 nM. Besides, the Dmax in experiment [1] (setting [4]) worked out at 87.4%. Besides, the “Dmax (%) H1975 # 28 DTC” value in experiment [2] (setting [6]) was determined as 83.32%.
The matching figures for `CCc1cc(Nc2ncc(Br)c(Nc3ccc4nc(C)ccc4c3P(C)(C)=O)n2)c(OC2CC2)cc1N1CCC(N2CCN(CCc3cc4oc(=O)n(C5CCC(=O)NC5=O)c4cc3F)CC2)CC1` (stereo not drawn) [Example 601, 3-(6-(2-(4-(1-(4-((5-bromo-4-((5-(dimethylphosphoryl)-2-methylquinolin-6-yl)amino)pyrimidin-2-yl)amino)-5-cyclopropoxy-2-ethylphenyl)piperidin-4-yl)piperazin-1-yl)ethyl)-5-fluoro-2-oxobenzo[d]oxazol-3(2H)-yl)piperidine-2,6-dione]: 8.64 nM, 0.632 nM, 89.5% and 77.35%.
For the molecule `Cc1ccc2c(P(C)(C)=O)c(Nc3nc(Nc4cc(C)c(N5CCC(N6CCN(CCc7cccc8c7n(C)c(=O)n8C7CCC(=O)NC7=O)CC6)CC5)cc4OC4CC4)ncc3Br)ccc2n1` (stereo not drawn) [Example 602, 3-(4-(2-(4-(1-(4-((5-bromo-4-((5-(dimethylphosphoryl)-2-methylquinolin-6-yl)amino)pyrimidin-2-yl)amino)-5-cyclopropoxy-2-methylphenyl)piperidin-4-yl)piperazin-1-yl)ethyl)-3-methyl-2-oxo-2,3-dihydro-1H-benzo[d]imidazol-1-yl)piperidine-2,6-dione], the figures for the DC50 in experiment [1] (setting [3]) and in experiment [2] (setting [5]) were 3.66 nM and 0.913 nM, respectively. Also, in experiment [1] (setting [4]), the Dmax is 93%. Moreover, the “Dmax (%) H1975 # 28 DTC” value in experiment [2] (setting [6]) came out at 77.98%.
The matching figures for `CCOc1cc(N2CCC(N3CCN(CCc4ccc(F)c5c4n(CC)c(=O)n5C4CCC(=O)NC4=O)CC3)CC2)c(CC)cc1Nc1ncc(Br)c(Nc2cc(F)c3nc(CC)ccc3c2P(C)(C)=O)n1` (stereo not drawn) [Example 603, 3-(4-(2-(4-(1-(4-((5-bromo-4-((5-(dimethylphosphoryl)-2-ethyl-8-fluoroquinolin-6-yl)amino)pyrimidin-2-yl)amino)-5-ethoxy-2-ethylphenyl)piperidin-4-yl)piperazin-1-yl)ethyl)-3-ethyl-7-fluoro-2-oxo-2,3-dihydro-1H-benzo[d]imidazol-1-yl)piperidine-2,6-dione]: 7.62 nM, 1.57 nM, 91.2% and 81.2%.
As to `CCOc1cc(N2CCC(N3CCN(CCN(C)c4cccc5c4oc(=O)n5C4CCC(=O)NC4=O)CC3)CC2)c(CC)cc1Nc1ncc(Br)c(Nc2cc(F)c3nc(CC)ccc3c2P(C)(C)=O)n1` (stereo not drawn) [Example 604, 3-(7-((2-(4-(1-(4-((5-bromo-4-((5-(dimethylphosphoryl)-2-ethyl-8-fluoroquinolin-6-yl)amino)pyrimidin-2-yl)amino)-5-ethoxy-2-ethylphenyl)piperidin-4-yl)piperazin-1-yl)ethyl)(methyl)amino)-2-oxobenzo[d]oxazol-3(2H)-yl)piperidine-2,6-dione], the DC50 came out at 18.5 nM in experiment [1] (setting [3]) and 0.764 nM in experiment [2] (setting [5]). Moreover, the Dmax in experiment [1] (setting [4]) turned out to be 86.1%. In experiment [2] (setting [6]), the “Dmax (%) H1975 # 28 DTC” value came out at 69.1%.
In the same order, the values of `CCc1cc(Nc2ncc(Br)c(Nc3ccc4nc(C)ccc4c3P(C)(C)=O)n2)c(OC2CC2)cc1N1CCC(N2CCN(CCCc3cc(F)cc4c3oc(=O)n4C3CCC(=O)NC3=O)CC2)CC1` (stereo not drawn) [Example 607, 3-(7-(3-(4-(1-(4-((5-bromo-4-((5-(dimethylphosphoryl)-2-methylquinolin-6-yl)amino)pyrimidin-2-yl)amino)-5-cyclopropoxy-2-ethylphenyl)piperidin-4-yl)piperazin-1-yl)propyl)-5-fluoro-2-oxobenzo[d]oxazol-3(2H)-yl)piperidine-2,6-dione] are 14.2 nM, 1.07 nM, 86.8% and 78.76%.
Consider `CCOc1cc(N2CCC(N3CCN(CCc4cc5oc(=O)n(C6CCC(=O)NC6=O)c5cc4F)CC3)CC2)c(CC)cc1Nc1ncc(Br)c(Nc2ccc3nc(CC)ncc3c2P(C)(C)=O)n1` (stereo not drawn) [Example 609, 3-(6-(2-(4-(1-(4-((5-bromo-4-((5-(dimethylphosphoryl)-2-ethylquinazolin-6-yl)amino)pyrimidin-2-yl)amino)-5-ethoxy-2-ethylphenyl)piperidin-4-yl)piperazin-1-yl)ethyl)-5-fluoro-2-oxobenzo[d]oxazol-3(2H)-yl)piperidine-2,6-dione], for which the “Dmax (%) BaF3-LTC” value in experiment [1] (setting [7]) is 89.57%. In addition, the DC50 in experiment [1] (setting [8]) turned out to be 11.5 nM; in experiment [2] (setting [9]) it was 3.07 nM. For the same molecule, the “Dmax (%) H1975 # 28 DTC” value in experiment [2] (setting [6]) is on record as 74.7%.
`CCOc1cc(N2CCC(N3CCN(C[C@H]4CCN(c5cccc6c5oc(=O)n6C5CCC(=O)NC5=O)C4)CC3)CC2)c(CC)cc1Nc1ncc(Br)c(Nc2ccc3c(=O)n(CC)ncc3c2P(C)(C)=O)n1` (stereo partly drawn) [Example 611, 3-(7-((R)-3-((4-(1-(4-((5-bromo-4-((5-(dimethylphosphoryl)-2-ethyl-1-oxo-1,2-dihydrophthalazin-6-yl)amino)pyrimidin-2-yl)amino)-5-ethoxy-2-ethylphenyl)piperidin-4-yl)piperazin-1-yl)methyl)pyrrolidin-1-yl)-2-oxobenzo[d]oxazol-3(2H)-yl)piperidine-2,6-dione]: the DC50 in experiment [1] (setting [3]) was 83.4 nM; in experiment [2] (setting [5]) it was 5.69 nM. For the same molecule, the “Dmax (%) BaF3-LTC” value in experiment [1] (setting [7]) came out at 86.27%. The “Dmax (%) H1975 # 28 DTC” value in experiment [2] (setting [6]) is 70.37%.
Consider `CCOc1cc(N2CCC(N3CCN(CCC4CCN(c5ccc6c(oc(=O)n6C6CCC(=O)NC6=O)c5F)CC4)CC3)CC2)c(CC)cc1Nc1ncc(Br)c(Nc2ccc3nc(CC)ncc3c2P(C)(C)=O)n1` (stereo not drawn) [Example 612, 3-(6-(4-(2-(4-(1-(4-((5-bromo-4-((5-(dimethylphosphoryl)-2-ethylquinazolin-6-yl)amino)pyrimidin-2-yl)amino)-5-ethoxy-2-ethylphenyl)piperidin-4-yl)piperazin-1-yl)ethyl)piperidin-1-yl)-7-fluoro-2-oxobenzo[d]oxazol-3(2H)-yl)piperidine-2,6-dione], for which the half-maximal degradation concentration (DC50) in experiment [1] (setting [8]) came to 7.68 nM; in experiment [2] (setting [9]) it was 0.656 nM. In experiment [1] (setting [10]), the Dmax came out at 93.2%. In addition, the “Dmax (%) H1975 # 28 DTC” value in experiment [2] (setting [6]) is 72.14%.
For `CCOc1cc(N2CCC(N3CCN(CCc4c(F)cc5c(oc(=O)n5C5CCC(=O)NC5=O)c4C)CC3)CC2)c(CC)cc1Nc1ncc(Br)c(Nc2ccc3c(=O)n(CC)ncc3c2P(C)(C)=O)n1` (stereo not drawn) [Example 613, 3-(6-(2-(4-(1-(4-((5-bromo-4-((5-(dimethylphosphoryl)-2-ethyl-1-oxo-1,2-dihydrophthalazin-6-yl)amino)pyrimidin-2-yl)amino)-5-ethoxy-2-ethylphenyl)piperidin-4-yl)piperazin-1-yl)ethyl)-5-fluoro-7-methyl-2-oxobenzo[d]oxazol-3(2H)-yl)piperidine-2,6-dione], the DC50 was determined as 17.3 nM in experiment [1] (setting [3]) and 3.55 nM in experiment [2] (setting [5]). Moreover, the Dmax in experiment [1] (setting [4]) was 88.6%. The “Dmax (%) H1975 # 28 DTC” value in experiment [2] (setting [6]) is given as 71.47%.
For `CCOc1cc(N2CCC(N3CCN(CCc4c(F)ccc5c4oc(=O)n5C4CCC(=O)NC4=O)CC3)CC2)c(CC)cc1Nc1ncc(Br)c(Nc2cc(F)c3nc(CC)ccc3c2P(C)(C)=O)n1` (stereo not drawn) [Example 614, 3-(7-(2-(4-(1-(4-((5-bromo-4-((5-(dimethylphosphoryl)-2-ethyl-8-fluoroquinolin-6-yl)amino)pyrimidin-2-yl)amino)-5-ethoxy-2-ethylphenyl)piperidin-4-yl)piperazin-1-yl)ethyl)-6-fluoro-2-oxobenzo[d]oxazol-3(2H)-yl)piperidine-2,6-dione], the results for the DC50 in experiment [1] (setting [3]) and in experiment [2] (setting [5]) were 23.8 nM and 2.61 nM, respectively. In addition, in experiment [1] (setting [7]), the “Dmax (%) BaF3-LTC” value was 80.74%. In experiment [2] (setting [6]), the “Dmax (%) H1975 # 28 DTC” value turned out to be 74%.
`CCOc1cc(N2CCC(N3CCN(CCCc4cccc5c4oc(=O)n5C4CCC(=O)NC4=O)CC3)CC2)c(CC)cc1Nc1ncc(Br)c(Nc2ccc3nc(CC)ncc3c2P(C)(C)=O)n1` (stereo not drawn) [Example 615, 3-(7-(3-(4-(1-(4-((5-bromo-4-((5-(dimethylphosphoryl)-2-ethylquinazolin-6-yl)amino)pyrimidin-2-yl)amino)-5-ethoxy-2-ethylphenyl)piperidin-4-yl)piperazin-1-yl)propyl)-2-oxobenzo[d]oxazol-3(2H)-yl)piperidine-2,6-dione]: the values for the DC50 in experiment [1] (setting [8]) and in experiment [2] (setting [9]) were 7.91 nM and 0.921 nM, respectively. In addition, the Dmax in experiment [1] (setting [10]) turned out to be 91%. Also, in experiment [2] (setting [6]), the “Dmax (%) H1975 # 28 DTC” value was 72.36%.
